Laboratory results as given in patent US20100076015A1, “Aminopyridine Derivatives” (VANTIA LIMITED, priority 2008, published 2010).

biological target: T1, Human KLK1 (Homo sapiens, UniProt P06870); experiment: Determination of the IC50 for KLK1 (fluorogenic substrate H-DVal-Leu-Arg-AFC); assay type: biochemical; details: 37° C.
T1 construct: purchased Callbiochem (Calbiochem)
How it was run: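 IC50 values reflect residual human KLK1 activity, read as initial rate from optical absorbance change at 410 nm. Incubations ran at 37° C with H-DVal-Leu-Arg-AFC as substrate across a compound concentration series.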

T1 sequence (P06870 25-262): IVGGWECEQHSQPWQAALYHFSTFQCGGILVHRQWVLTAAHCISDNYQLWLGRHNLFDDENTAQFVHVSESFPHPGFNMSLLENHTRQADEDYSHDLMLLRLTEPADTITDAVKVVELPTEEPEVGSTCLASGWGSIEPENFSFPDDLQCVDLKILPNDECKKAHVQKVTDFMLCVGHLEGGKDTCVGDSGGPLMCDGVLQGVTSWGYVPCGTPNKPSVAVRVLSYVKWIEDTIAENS

| Compound | IC50 [nM] |
| --- | --- |
| Nc1ccc(CNC(=O)[C@H](Cc2ccc(F)c(F)c2)NC(=O)c2nc3ccccc3[nH]2)cn1 [Example 328, 1H-Benzoimidazole-2-carboxylic acid [(S)-1-[(6-amino-pyridin-3-ylmethyl)-carbamoyl]-2-(3,4-difluoro-phenyl)-ethyl]-amide] | 179 |
| CCC(C)[C@@H](N)C(=O)N[C@@H](Cc1ccccc1C)C(=O)NCc1ccc(N)nc1 (stereo partly drawn) [Example 28, (R)-2-Amino-3-methyl-pentanoic acid {(S)-1-[(6-amino-pyridin-3-ylmethyl)-carbamoyl]-2-o-tolyl-ethyl}-amide] | 32.1 |
| Nc1ccc(CNC(=O)[C@H](Cc2ccc(F)c(F)c2)NC(=O)[C@H](N)Cc2ccccc2)cn1 [Example 80, (R)-2-Amino-N-[(S)-1-[(6-amino-pyridin-3-ylmethyl)-carbamoyl]-2-(3,4-difluoro-phenyl)-ethyl]-3-phenyl-propionamide] | 16.1 |
| CCC(C)[C@@H](NC)C(=O)N[C@@H](Cc1cc(F)cc(F)c1)C(=O)NCc1ccc(N)nc1 (stereo partly drawn) [Example 49, (R)-3-Methyl-2-methylamino-pentanoic acid [(S)-1-[(6-amino-pyridin-3-ylmethyl)-carbamoyl]-2-(3,5-difluoro-phenyl)-ethyl]-amide] | 4.2 |
| Cc1ccc(-c2ccc(C(=O)N[C@@H](Cc3csc4ccccc34)C(=O)NCc3ccc(N)nc3)[nH]2)cc1 [Example 293, 5-p-Tolyl-1H-pyrrole-2-carboxylic acid {(S)-1-[(6-amino-pyridin-3-ylmethyl)-carbamoyl]-2-benzo[b]thiophen-3-yl-ethyl}-amide] | 36.3 |
| CN1C[C@H](O)C[C@@H]1C(=O)N[C@@H](Cc1ccc(F)c(F)c1)C(=O)NCc1ccc(N)nc1 [Example 148, (2R,4R)-4-Hydroxy-1-methyl-pyrrolidine-2-carboxylic acid [(S)-1-[(6-amino-pyridin-3-ylmethyl)-carbamoyl]-2-(3,4-difluoro-phenyl)-ethyl]-amide] | 55.7 |
| Cc1cccc(C[C@H](NC(=O)[C@H]2CCCN2C(C)C)C(=O)NCc2ccc(N)nc2)c1 [Example 122, (R)-1-Isopropyl-pyrrolidine-2-carboxylic acid {(S)-1-[(6-amino-pyridin-3-ylmethyl)-carbamoyl]-2-m-tolyl-ethyl}-amide] | 1.8 |
| CC1CCCC(C)N1CC(=O)N[C@@H](CC1CCCCC1)C(=O)NCc1ccc(N)nc1 (stereo partly drawn) [Example 392, (S)—N-(6-Amino-pyridin-3-ylmethyl)-3-cyclohexyl-2-[2-(2,6-dimethyl-piperidin-1-yl)-acetylamino]-propionamide] | 47.2 |
| CC(C)N1CCC[C@@H]1C(=O)N[C@@H](Cc1ccccc1F)C(=O)NCc1ccc(N)nc1 [Example 125, (R)-1-Isopropyl-pyrrolidine-2-carboxylic acid [(S)-1-[(6-amino-pyridin-3-ylmethyl)-carbamoyl]-2-(2-fluoro-phenyl)-ethyl]-amide] | 8.8 |
| CN1CCC[C@@H]1C(=O)N[C@@H](Cc1ccccc1Cl)C(=O)NCc1ccc(N)nc1 [Example 109, (R)-1-Methyl-pyrrolidine-2-carboxylic acid [(S)-1-[(6-amino-pyridin-3-ylmethyl)-carbamoyl]-2-(2-chloro-phenyl)-ethyl]-amide] | 21.7 |
| COc1ccc(C[C@H](NC(=O)c2cc3ccccc3[nH]2)C(=O)NCc2ccc(N)nc2)cc1 [Example 334, 1H-Indole-2-carboxylic acid [(S)-1-[(6-amino-pyridin-3-ylmethyl)-carbamoyl]-2-(4-methoxy-phenyl)-ethyl]-amide] | 235 |
| (S)—N-{(R)-1-[(6-Amino-pyridin-3-ylmethyl)-carbamoyl]-2,2-dicyclohexyl-ethyl}-2-dimethylamino-propionamide [Example 434] | 43.9 |
| Nc1ccc(CNC(=O)[C@H](Cc2ccc(F)c(F)c2)NC(=O)CN2CCCC2)cn1 [Example 366, (S)—N-(6-Amino-pyridin-3-ylmethyl)-3-(3,4-difluoro-phenyl)-2-(2-pyrrolidin-1-yl-acetylamino)-propionamide] | 54.5 |
